Test [1] relates to Corn Earworm (CEW) (Helicoverpa zea). The test is described as follows: Bioassays on Corn Earworm (CEW), 128-well diet tray assay. It is filed as in vivo. To be noted: 168 h, 50 μg/cm^2 test compound on artificial diet, second instar larvae, 25° C., five to seven days, average of eight wells, read-out: CEW Rating (% mortality). The method, then: (§1) Certain molecules disclosed in this document were tested against BAW and CEW using procedures described in the following examples. In the reporting of the results, the “BAW & CEW Rating Table” was used (See Table Section).
Bioassays on CEW (Helicoverpa zea)
Bioassays on CEW were conducted using a 128-well diet tray assay. one to five second instar CEW larvae were placed in each well (3 mL) of the diet tray that had been previously filled with 1 mL of artificial diet to which 50 μg/cm^2 of the test compound (dissolved in 50 μL of 90:10 acetone-water mixture) had been applied (to each of eight wells) and then allowed to dry. Trays were covered with a clear self-adhesive cover, and held at 25° C., 14:10 light-dark for five to seven days. Percent mortality was recorded for the larvae in each well; activity in the eight wells was then averaged. The results are indicated in the table entitled “Table 3: Assay Results” (See Table Section).

In test [2] the test system is Beet Armyworm (BAW) (Spodoptera exigua). The test is described as follows: Bioassays on Beet Armyworm (BAW), 128-well diet tray assay. It is filed as in vivo. Particulars: 168 h, 50 μg/cm^2 test compound on artificial diet, second instar larvae, 25° C., five to seven days, average of eight wells, read-out: BAW Rating (% mortality). As to the method: as §1
Bioassays on BAW (Spodoptera exigua)
Bioassays on BAW were conducted using a 128-well diet tray assay. one to five second instar BAW larvae were placed in each well (3 mL) of the diet tray that had been previously filled with 1 mL of artificial diet to which 50 μg/cm^2 of the test compound (dissolved in 50 μL of 90:10 acetone-water mixture) had been applied (to each of eight wells) and then allowed to dry. Trays were covered with a clear self-adhesive cover, and held at 25° C., 14:10 light-dark for five to seven days. Percent mortality was recorded for the larvae in each well; activity in the eight wells was then averaged. The results are indicated in the table entitled “Table 3: Assay Results” (See Table Section).

Usually mortality stands for the percentage killed. For `FC(F)(F)C(/C=C/c1ccc(-n2cncn2)c(Cl)c1)c1cc(Cl)cc(Cl)c1` (stereo not drawn) [DC50], the mortality at 50 µg/cm2 in test [1] and in test [2] was 50 to 100% throughout.
With `O=C(NCc1ccc(/C=C/C(c2cc(Cl)c(Cl)c(Cl)c2)C(F)(F)F)cc1Cl)C1CC1` (stereo not drawn) [CC11], the mortality at 50 µg/cm2 in test [1] and in test [2] was 50 to 100% in each case.
Regarding `N#Cc1cc(/C=C/C(c2cc(Cl)cc(Cl)c2)C(F)(F)F)ccc1-n1cncn1` (stereo not drawn) [DC29], the mortality at 50 µg/cm2 in test [1] and in test [2] was 50 to 100% each time.
Take `O=C(CC(F)(F)F)NCc1ccc(/C=C/C(c2cc(Cl)c(Cl)c(Cl)c2)C(F)(F)F)cc1F` (stereo not drawn) [CC27]: the mortality at 50 µg/cm2 in test [1] and in test [2] was 50 to 100% throughout.
With `Cc1cc(/C=C/C(c2cc(Cl)cc(Cl)c2)C(F)(F)F)ccc1C(=O)NCc1ccc(Cl)nc1` (stereo not drawn) [AC7], the mortality at 50 µg/cm2 in test [1] and in test [2] was 50 to 100% throughout.
For the compound `CNc1cc(/C=C/C(c2cc(Cl)cc(Cl)c2)C(F)(F)F)ccc1-n1cncn1` (stereo not drawn) [DC57, (E)-5-(3-(3,5-dichlorophenyl)-4,4,4-trifluorobut-1-en-1-yl)-N-methyl-2-(1H-1,2,4-triazol-1-yl)aniline], the mortality at 50 µg/cm2 in test [1] and in test [2] was 50 to 100% throughout.
As for `O=C(NCc1ccc(/C=C/C(c2cc(Cl)c(Cl)c(Cl)c2)C(F)(F)F)c2ccccc12)C1CC1` (stereo not drawn) [CC48], the mortality at 50 µg/cm2 in test [1] and in test [2] was 0% each time.
Regarding `O=C(CNC(=O)c1ccc(/C=C/C(c2cc(Cl)cc(Cl)c2)C(F)(F)F)cc1Cl)NCC(F)(F)F` (stereo not drawn) [AC57], the mortality at 50 µg/cm2 in test [1] and in test [2] was 50 to 100% each time.
For the compound `O=C(NCc1ccc(/C=C/C(c2cc(Cl)c(Cl)c(Cl)c2)C(F)(F)F)cc1C(F)(F)F)C1CC1` (stereo not drawn) [CC22], the mortality at 50 µg/cm2 in test [1] and in test [2] was 50 to 100% each time.
On to `O=C(c1ccc(/C=C/C(c2cc(Cl)cc(Cl)c2)C(F)(F)F)cc1)N1CCOCC1` (stereo not drawn) [AC5], for which the mortality at 50 µg/cm2 in test [1] and in test [2] was 0% each time.
Consider `O=C(CC(F)(F)F)NCc1ccc(/C=C\C(c2cc(Cl)c(Cl)c(Cl)c2)C(F)(F)F)cc1` (stereo not drawn) [CC54, (Z)-3,3,3-trifluoro-N-(4-(4,4,4-trifluoro-3-(3,4,5-trichlorophenyl)but-1-en-1-yl)benzyl)propanamide], for which the mortality at 50 µg/cm2 in test [1] and in test [2] was 50 to 100% in each case.
`OCc1cc(/C=C/C(c2cc(Cl)cc(Cl)c2)C(F)(F)F)ccc1-n1cncn1` (stereo not drawn) [DC53]: the values for the mortality at 50 µg/cm2 in test [1] and in test [2] were 50 to 100% and 0%, respectively.
In the same order, the values of `O=C(NCc1ccc(/C=C/C(c2cc(Cl)c(Cl)c(Cl)c2)C(F)(F)F)cc1)c1ccnc(Cl)c1` (stereo not drawn) [CC13] are 50 to 100% and 50 to 100%.
The like results for `O=C(CC(F)(F)F)NCc1ccc(/C=C/C(c2cc(Cl)cc(Cl)c2)C(F)(F)F)cc1Cl` (stereo not drawn) [CC9] were, in that order, 50 to 100% and 50 to 100%.
Regarding `O=C(NCc1ccc(Cl)nc1)c1ccc(/C=C/C(c2cc(Cl)c(F)c(Cl)c2)C(F)(F)F)cc1Br` (stereo not drawn) [AC63], the mortality at 50 µg/cm2 in test [1] and in test [2] was 50 to 100% throughout.
For `O=C(NC1CSC1)c1ccc(/C=C/C(c2cc(Cl)c(Cl)c(Cl)c2)C(F)(F)F)cc1Cl` (stereo not drawn) [AC29], the mortality at 50 µg/cm2 in test [1] and in test [2] was 50 to 100% each time.
In the case of `O=C(NC1CSC1)c1ccc(/C=C/C(c2cc(Cl)c(Cl)c(Cl)c2)C(F)(F)F)cc1C(F)(F)F` (stereo not drawn) [AC34], the mortality at 50 µg/cm2 in test [1] and in test [2] was 50 to 100% in each case.
In the case of `CC(=O)NCc1ccc(/C=C/C(c2cc(Cl)cc(Cl)c2)C(F)(F)F)cc1Cl` (stereo not drawn) [CC7, (E)-N-(2-chloro-4-(3-(3,5-dichlorophenyl)-4,4,4-trifluorobut-1-en-1-yl)benzyl)acetamide], the mortality at 50 µg/cm2 in test [1] and in test [2] was 50 to 100% each time.
Regarding `COc1ccc(C(/C=C/c2ccc(-n3cncn3)cc2)C(F)(F)F)cc1` (stereo not drawn) [DC6], the mortality at 50 µg/cm2 in test [1] and in test [2] was 0% throughout.
As for `O=C(NC1CCN(CCO)CC1)c1ccc(/C=C/C(c2cc(Cl)c(Cl)c(Cl)c2)C(F)(F)F)cc1Br` (stereo not drawn) [AC109, (E)-2-bromo-N-(1-(2-hydroxyethyl)piperidin-4-yl)-4-(4,4,4-trifluoro-3-(3,4,5-trichlorophenyl)but-1-en-1-yl)benzamide], the mortality at 50 µg/cm2 in test [1] and in test [2] was 0% throughout.
Turning to `Fc1cccc(C(/C=C/c2ccc(-n3cncn3)cc2)C(F)(F)F)c1` (stereo not drawn) [DC9], the mortality at 50 µg/cm2 in test [1] and in test [2] was 0% throughout.
Take `O=C(NC1CSC1)c1ccc(/C=C/C(c2cc(Cl)cc(Cl)c2)C(F)(F)F)cc1F` (stereo not drawn) [AC61]: the mortality at 50 µg/cm2 in test [1] and in test [2] was 50 to 100% each time.
With `FC(F)(F)C(/C=C/c1ccc(-n2cncn2)c(Br)c1)c1cc(Cl)cc(Cl)c1` (stereo not drawn) [DC47], the mortality at 50 µg/cm2 in test [1] and in test [2] was 50 to 100% throughout.
As to `O=C(NC1CCN(CC(F)(F)F)CC1)c1ccc(/C=C/C(c2cc(Cl)c(Cl)c(Cl)c2)C(F)(F)F)cc1Br` (stereo not drawn) [AC105, (E)-2-bromo-4-(4,4,4-trifluoro-3-(3,4,5-trichlorophenyl)but-1-en-1-yl)-N-(1-(2,2,2-trifluoroethyl)piperidin-4-yl)benzamide], the mortality at 50 µg/cm2 in test [1] and in test [2] was 50 to 100% in each case.
As to `O=C(NNc1ccc(/C=C/C(c2cc(Cl)c(Cl)c(Cl)c2)C(F)(F)F)cc1)C1CC1` (stereo not drawn) [CC50, (E)-N′-(4-(4,4,4-trifluoro-3-(3,4,5-trichlorophenyl)but-1-en-1-yl)phenyl)cyclopropanecarbohydrazide], the mortality at 50 µg/cm2 in test [1] and in test [2] was 50 to 100% throughout.
With `Fc1cc(F)cc(C(/C=C/c2ccc(-n3cncn3)cc2)C(F)(F)F)c1` (stereo not drawn) [DC8], the mortality at 50 µg/cm2 is 0% in test [1] and 50 to 100% in test [2].
Take `CONC(=O)CNC(=O)c1ccc(/C=C/C(c2cc(Cl)c(Cl)c(Cl)c2)C(F)(F)F)cc1Br` (stereo not drawn) [AC110]: the mortality at 50 µg/cm2 in test [1] and in test [2] was 50 to 100% in each case.
Turning to `FC(F)(F)C(/C=C/c1ccc(-n2cncn2)c(Cl)c1)c1cc(Cl)c(Cl)c(Cl)c1` (stereo not drawn) [DC49], the mortality at 50 µg/cm2 in test [1] and in test [2] was 50 to 100% each time.
As for `CN(C)c1ccc(CNC(=O)c2ccc(/C=C/C(c3cc(Cl)c(Cl)c(Cl)c3)C(F)(F)F)cc2Br)cn1` (stereo not drawn) [AC96], the mortality at 50 µg/cm2 in test [1] and in test [2] was 0% throughout.
Regarding `CC(=O)NCc1ccc(/C=C/C(c2cc(Cl)cc(Cl)c2)C(F)(F)F)cc1` (stereo not drawn) [CC1, (E)-N-(4-(3-(3,5-dichlorophenyl)-4,4,4-trifluorobut-1-enyl)benzyl)acetamide], the mortality at 50 µg/cm2 in test [1] and in test [2] was 0% each time.
On to `O=[N+]([O-])c1cc(/C=C/C(c2cc(Cl)cc(Cl)c2)C(F)(F)F)ccc1-n1cncn1` (stereo not drawn) [DC54], for which the mortality at 50 µg/cm2 in test [1] and in test [2] was 0% in each case.
`Fc1cc(/C=C/C(c2cc(Cl)cc(Cl)c2)C(F)(F)F)ccc1-n1cncn1` (stereo not drawn) [DC48]: the mortality at 50 µg/cm2 in test [1] and in test [2] was 50 to 100% in each case.
On to `O=C(NCCc1ccc(Cl)nc1)c1ccc(/C=C/C(c2cc(Cl)c(Cl)c(Cl)c2)C(F)(F)F)cc1Br` (stereo not drawn) [AC113], for which the mortality at 50 µg/cm2 is 50 to 100% in test [1] and 0 to 50% in test [2].
